The text below walks through data of patent US20130137760A1, “GAMBOGIC AMINE, A SELECTIVE TRKA AGONIST WITH NEUROPROTECTIVE ACTIVITY” (EMORY UNIVERSITY, priority 2007, published 2013).

One assay deals with hippocampal neurons. Description: Glutamate-triggered neuronal cell death in hippocampal neurons. Particulars: in vitro. The class given is cell-based. As for the experimental part: To examine whether test compounds can promote neuronal survival, hippocampal neurons can be prepared, and the primary neurons pre-treated with various test compounds for a period of time, for example, 30 min, followed by 50 μM glutamate treatment for a period of time, for example, 16 h.
TrkA is highly expressed in hippocampal neurons (Culmsee et al., 2002; Kume et al., 2000; Zhang et al., 1993). […] To examine whether these compounds can promote neuronal survival, one can prepare hippocampal neurons and pre-treat the primary neurons with various gambogic amine derivatives for 30 min, followed by 50 μM glutamate treatment for 16 h.

Another assay has as its system hippocampus. Briefly: Kainic acid-elicited neuronal cell death in mouse brain (TUNEL, hippocampus). The class given is in vivo, C57BL/6 mice. The note with it: mouse brain. An excerpt:
Kainic acid (KA) is a potent agonist for the AMPA receptor. Peripheral injections of KA result in recurrent seizures and the subsequent degeneration of select populations of neurons in the hippocampus (Nadler et al., 1980; Schauwecker and Steward, 1997; Sperk et al., 1983). It has been shown that the activation of caspase-3 is a necessary component of KA-induced cell death (Faherty et al., 1999). To explore whether test compounds can block the neurotoxicity initiated by KA, the compounds can be subcutaneously injected (for example, at a concentration of 2 mg/kg) into C57BL/6 mice, followed by 25 mg/kg KA. In 5 days, the mice can be perfused and the brains cut to a thickness of 5 μm and mounted on slides.
Kainic acid (KA) is a potent agonist for the AMPA receptor. Peripheral injections of KA result in recurrent seizures and the subsequent degeneration of select populations of neurons in the hippocampus (Nadler et al., 1980; Schauwecker and Steward, 1997; Sperk et al., 1983). It has been shown that the activation of caspase-3 is a necessary component of KA-induced cell death (Faherty et al., 1999). To explore whether gambogic amines can block the neurotoxicity initiated by KA, one can subcutaneously inject 2 mg/kg of a gambogic amine into C57BL/6 mice, followed by 25 mg/kg KA. In 5 days, the mice can be perfused and the brains were cut to a thickness of 5 μm and mounted on slides. TUNEL staining can reveal whether KA provokes enormous apoptosis in the hippocampus, and whether this effect is substantially diminished by the gambogic amine.
Male C57BL/6 mice aged of 60 days can be injected subcutaneously (s.c.) with a single dose of either 30% ethanol in saline or KA (25 mg/kg) (Sigma, Mo.) or the gambogic amine (2 mg/kg) followed by KA. Animals can be continually monitored for 2 h for the onset of seizure activity. At 5 days following treatment, animals can be anesthetized and perfused with 4% paraformaldehyde in 0.1 M phosphate buffered saline. Brains can be removed, post-fixed overnight and processed for paraffin embedding. […]

`CC(C)=CCC[C@]1(C)C=Cc2c(O)c3c(c(CC=C(C)C)c2O1)O[C@]12C(=C[C@@H]4CC1C(C)(C)O[C@@]2(C/C=C(/C)C(N)=O)C4=O)C3=O` [gambogic amide]: the “protection of hippocampal neurons from glutamate-triggered neuronal cell death” value in the assay with hippocampal neurons is reported as “potent neurotrophic effects”. Besides, the “block of kainic acid-elicited neuronal cell death in mouse brain” value with hippocampus is on record as “strongly block”.
